# Source: patent publication US20080182898A1, “Treatment of metabolic syndrome with norfluoxetine” (AMPLA Pharmaceuticals Inc., priority 2007, published 2008)
# Biological target: CB1 receptor (Homo sapiens, UniProt P21554)
# Experiment: functional activity versus the CB1 receptor
# Details: qualitative statement, no method or numbers given
# Sequence of CB1 receptor (P21554 whole entry): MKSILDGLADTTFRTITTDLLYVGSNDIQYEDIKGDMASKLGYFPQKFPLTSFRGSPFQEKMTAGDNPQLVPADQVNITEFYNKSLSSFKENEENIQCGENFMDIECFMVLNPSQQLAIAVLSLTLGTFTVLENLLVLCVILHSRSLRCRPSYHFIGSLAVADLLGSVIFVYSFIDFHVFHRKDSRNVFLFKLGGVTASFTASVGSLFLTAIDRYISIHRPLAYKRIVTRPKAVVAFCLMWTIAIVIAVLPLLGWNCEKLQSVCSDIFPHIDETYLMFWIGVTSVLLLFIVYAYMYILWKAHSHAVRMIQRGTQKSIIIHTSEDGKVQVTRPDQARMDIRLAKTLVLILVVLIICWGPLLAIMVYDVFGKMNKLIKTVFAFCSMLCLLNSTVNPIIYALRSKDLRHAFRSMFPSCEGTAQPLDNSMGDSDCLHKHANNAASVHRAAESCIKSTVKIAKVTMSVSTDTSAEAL
row,SMILES,functional activity versus the CB1 receptor (mode of action)
1,"NCCC(Oc1ccc(C(F)(F)F)cc1)c1ccccc1 (racemic) [racemate of norfluoxetine, 3-(4-trifluoromethylphenoxy)3-phenylpropylamine]",antagonist
2,CNCC[C@H](Oc1ccc(C(F)(F)F)cc1)c1ccccc1 [(S)-Fluoxetine],inverse agonist
3,CNCC[C@@H](Oc1ccc(C(F)(F)F)cc1)c1ccccc1 [(R)-fluoxetine],antagonist
